# In US8722849B2, “Polypeptides” (Novo Nordisk A/S, priority 2011, dated 2014):
# Starred links: 1 amine or outer side, 2 acyl side, 3 side chain; linkers in the order of their positions; H or OH if unused. Positions of bridges follow the written chain, without caps; N, C: chain ends. Residues, ends and D or L forms follow the SMILES beside them. *: point of attachment. C20 diacid = O=C(O)CCCCCCCCCCCCCCCCCCC(=O)*; C18 diacid = O=C(O)CCCCCCCCCCCCCCCCC(=O)*; γGlu = O=C(O)[C@H](CCC(=O)[*:2])N[*:1]
# What was measured:
# [1] = biological target: T1, rat calcitonin (a) receptor (Rattus norvegicus, UniProt P32214); test: Assay (II)b functional cAMP FlashPlate assay, rat calcitonin receptor; assay type: cell-based; settings: Table 11; read-out: CTa receptor rat EC50
# T1 construct: expressed in transfected cells; host or cells: BHK tk'ts 13
# T1 sequence (P32214 25-479 isoform P32214-2 limits assumed): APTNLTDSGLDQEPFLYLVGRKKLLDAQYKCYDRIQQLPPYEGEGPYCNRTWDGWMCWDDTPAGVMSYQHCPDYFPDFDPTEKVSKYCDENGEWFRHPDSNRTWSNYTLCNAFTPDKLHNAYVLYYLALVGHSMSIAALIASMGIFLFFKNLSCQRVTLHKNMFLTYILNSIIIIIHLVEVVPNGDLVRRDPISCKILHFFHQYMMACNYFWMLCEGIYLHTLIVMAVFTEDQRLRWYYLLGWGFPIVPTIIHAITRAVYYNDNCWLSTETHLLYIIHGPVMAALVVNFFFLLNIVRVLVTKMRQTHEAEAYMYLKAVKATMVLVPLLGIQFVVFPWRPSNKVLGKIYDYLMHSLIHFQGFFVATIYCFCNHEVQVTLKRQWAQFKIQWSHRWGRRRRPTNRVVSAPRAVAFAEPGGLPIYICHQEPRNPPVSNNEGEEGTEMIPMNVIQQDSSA
# Summary of the method: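 cAMP accumulation in transiently transfected BHK tk'ts 13 cells, 100.000 cells/well, expressing rat calcitonin(a) receptor or its RAMP3 co-expression form (amylin 3(a)): 30 min stimulation with IBMX, 24 hours post-transfection. Readout by competition of cellular versus radiolabelled cAMP in FlashPlates, scintillation counted after 3 h.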
# [2] = Assay (III) ThT fibrillation assay for physical stability; assay type: physicochemical
# Summary of the method: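 Freshly prepared formulations, pH-adjusted, with 1 μM ThT; four or eight replicates incubated at 37 °C under 960 rpm orbital shaking. Fluorescence (ex 444/em 485 nm) read every 20 min; […]. Peptide concentration measured by RP-HPLC before and after the run.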
SMILES,EC50 [1],ThT pH 4.0 lag time ([2]; Table 8),ThT pH 4.0 lag time ([2]; ThT fibrillation assay),ThT pH 4.0 lag time (h) ([2]; ThT fibrillation assay)
"CC[C@H](C)[C@H](NC(=O)[C@@H]1CCCN1C(=O)CNC(=O)[C@H](Cc1ccccc1)NC(=O)[C@H](CC(N)=O)NC(=O)[C@H](CC(N)=O)NC(=O)[C@H](CO)NC(=O)[C@H](CO)NC(=O)[C@H](Cc1c[nH]cn1)NC(=O)[C@H](Cc1c[nH]cn1)NC(=O)[C@H](CC(C)C)NC(=O)[C@H](Cc1ccccc1)NC(=O)[C@H](CCC(=O)O)NC(=O)[C@H](C)NC(=O)[C@H](CC(C)C)NC(=O)[C@H](CCCNC(=N)N)NC(=O)[C@H](CCC(N)=O)NC(=O)[C@@H](NC(=O)[C@H](C)NC(=O)[C@@H]1CSSC[C@H](NC(=O)[C@H](CCCCN)NC(=O)CC[C@H](NC(=O)CCCCCCCCCCCCCCCCC(=O)O)C(=O)O)C(=O)N[C@@H](CC(N)=O)C(=O)N[C@@H]([C@@H](C)O)C(=O)N[C@@H](C)C(=O)N[C@@H]([C@@H](C)O)C(=O)N1)[C@@H](C)O)C(=O)N[C@@H](CC(C)C)C(=O)N1CCC[C@H]1C(=O)N1CCC[C@H]1C(=O)N[C@H](C(=O)N[C@@H](CC(N)=O)C(=O)N[C@H](C(=O)NCC(=O)N[C@@H](CO)C(=O)N[C@@H](CC(N)=O)C(=O)N[C@H](C(=O)N[C@@H](Cc1ccc(O)cc1)C(N)=O)[C@@H](C)O)C(C)C)[C@@H](C)O [Example 46, N-alpha-[(S)-4-Carboxy-4-(17-carboxyheptadecanoylamino)butyryl]-[Glu14,His17]-pramlintide] ({C18 diacid-γGlu}-KCNTATCATQRLAEFLHHSSNNFGPILPPTNVGSNTY-NH2; disulfide 2-7 (inferred); C-terminus assumed)",0.433 nM,27.9 h,27.9 h,27.9 h
"CC[C@H](C)[C@H](NC(=O)[C@@H]1CCCN1C(=O)CNC(=O)[C@H](Cc1ccccc1)NC(=O)[C@H](CC(N)=O)NC(=O)[C@H](CC(N)=O)NC(=O)[C@H](CO)NC(=O)[C@H](CO)NC(=O)[C@H](Cc1c[nH]cn1)NC(=O)[C@H](Cc1c[nH]cn1)NC(=O)[C@H](CC(C)C)NC(=O)[C@H](Cc1ccccc1)NC(=O)[C@H](CCC(=O)O)NC(=O)[C@H](C)NC(=O)[C@H](CC(C)C)NC(=O)[C@H](CCCNC(=N)N)NC(=O)[C@H](CCC(N)=O)NC(=O)[C@@H](NC(=O)[C@H](C)NC(=O)[C@@H]1CSSC[C@H](NC(=O)[C@H](CCCCN)NC(=O)[C@H](CCC(=O)O)NC(=O)CC[C@H](NC(=O)CCCCCCCCCCCCCCCCCCC(=O)O)C(=O)O)C(=O)N[C@@H](CC(N)=O)C(=O)N[C@@H]([C@@H](C)O)C(=O)N[C@@H](C)C(=O)N[C@@H]([C@@H](C)O)C(=O)N1)[C@@H](C)O)C(=O)N[C@@H](CC(C)C)C(=O)N1CCC[C@H]1C(=O)N1CCC[C@H]1C(=O)N[C@H](C(=O)N[C@@H](CC(N)=O)C(=O)N[C@H](C(=O)NCC(=O)N[C@@H](CO)C(=O)N[C@@H](CC(N)=O)C(=O)N[C@H](C(=O)N[C@@H](Cc1ccc(O)cc1)C(N)=O)[C@@H](C)O)C(C)C)[C@@H](C)O [Example 26, N-alpha-[(S)-4-Carboxy-4-(19-carboxynonadecanoylamino)butyryl]-Glu-[Glu14,His17]-pramlintide] ({C20 diacid-γGlu}-EKCNTATCATQRLAEFLHHSSNNFGPILPPTNVGSNTY-NH2; disulfide 3-8 (inferred); C-terminus assumed)",1.39 nM,–,–,2 h
"CC[C@H](C)[C@H](NC(=O)[C@@H]1CCCN1C(=O)CNC(=O)[C@H](Cc1ccccc1)NC(=O)[C@H](CC(N)=O)NC(=O)[C@H](CC(N)=O)NC(=O)[C@H](CO)NC(=O)[C@H](CO)NC(=O)[C@H](CCCNC(=N)N)NC(=O)[C@H](Cc1c[nH]cn1)NC(=O)[C@H](CC(C)C)NC(=O)[C@H](Cc1ccccc1)NC(=O)[C@H](CCC(=O)O)NC(=O)[C@H](C)NC(=O)[C@H](CC(C)C)NC(=O)[C@H](CCCNC(=N)N)NC(=O)[C@H](CCC(N)=O)NC(=O)[C@@H](NC(=O)[C@H](C)NC(=O)[C@@H]1CSSC[C@H](NC(=O)[C@H](Cc2c[nH]cn2)NC(=O)CC[C@H](NC(=O)CCCCCCCCCCCCCCCCCCC(=O)O)C(=O)O)C(=O)N[C@@H](CC(N)=O)C(=O)N[C@@H]([C@@H](C)O)C(=O)N[C@@H](C)C(=O)N[C@@H]([C@@H](C)O)C(=O)N1)[C@@H](C)O)C(=O)N[C@@H](CC(C)C)C(=O)N1CCC[C@H]1C(=O)N1CCC[C@H]1C(=O)N[C@H](C(=O)N[C@@H](CC(N)=O)C(=O)N[C@H](C(=O)NCC(=O)N[C@@H](CO)C(=O)N[C@@H](CC(N)=O)C(=O)N[C@H](C(=O)N[C@@H](Cc1ccc(O)cc1)C(N)=O)[C@@H](C)O)C(C)C)[C@@H](C)O [Example 1, N-alpha-[(S)-4-Carboxy-4-(19-carboxynonadecanoylamino)butyryl]-[His1,Glu14,His17,Arg18]-pramlintide] ({C20 diacid-γGlu}-HCNTATCATQRLAEFLHRSSNNFGPILPPTNVGSNTY-NH2; disulfide 2-7 (inferred))",0.379 nM,–,–,11 h
"CC[C@H](C)[C@H](NC(=O)[C@@H]1CCCN1C(=O)CNC(=O)[C@H](Cc1ccccc1)NC(=O)[C@H](CC(N)=O)NC(=O)[C@H](CC(N)=O)NC(=O)[C@H](CO)NC(=O)[C@H](CO)NC(=O)[C@H](Cc1c[nH]cn1)NC(=O)[C@H](Cc1c[nH]cn1)NC(=O)[C@H](CC(C)C)NC(=O)[C@H](Cc1ccccc1)NC(=O)[C@H](CCC(=O)O)NC(=O)[C@H](C)NC(=O)[C@H](CC(C)C)NC(=O)[C@H](CCCNC(=N)N)NC(=O)[C@H](CCC(N)=O)NC(=O)[C@@H](NC(=O)[C@H](C)NC(=O)[C@@H]1CSSC[C@H](NC(=O)[C@H](Cc2c[nH]cn2)NC(=O)[C@H](Cc2c[nH]cn2)NC(=O)[C@H](Cc2c[nH]cn2)NC(=O)CC[C@H](NC(=O)CCCCCCCCCCCCCCCCCCC(=O)O)C(=O)O)C(=O)N[C@@H](CCCNC(=N)N)C(=O)N[C@@H]([C@@H](C)O)C(=O)N[C@@H](C)C(=O)N[C@@H]([C@@H](C)O)C(=O)N1)[C@@H](C)O)C(=O)N[C@@H](CC(C)C)C(=O)N1CCC[C@H]1C(=O)N1CCC[C@H]1C(=O)N[C@H](C(=O)N[C@@H](CC(N)=O)C(=O)N[C@H](C(=O)NCC(=O)N[C@@H](CO)C(=O)N[C@@H](CC(N)=O)C(=O)N[C@H](C(=O)N[C@@H](Cc1ccc(O)cc1)C(N)=O)[C@@H](C)O)C(C)C)[C@@H](C)O [Example 22, N-alpha-[(S)-4-Carboxy-4-(19-carboxynonadecanoylamino)butyryl]-His-His-[His1,Arg3,Glu14,His17]-pramlintide] ({C20 diacid-γGlu}-HHHCRTATCATQRLAEFLHHSSNNFGPILPPTNVGSNTY-NH2; disulfide 4-9 (inferred))",1.29 nM,–,–,2.7 h
"CC[C@H](C)[C@H](NC(=O)[C@@H]1CCCN1C(=O)CNC(=O)[C@H](Cc1ccccc1)NC(=O)[C@H](CC(N)=O)NC(=O)[C@H](CC(N)=O)NC(=O)[C@H](CO)NC(=O)[C@H](CO)NC(=O)[C@H](Cc1c[nH]cn1)NC(=O)[C@H](Cc1c[nH]cn1)NC(=O)[C@H](CC(C)C)NC(=O)[C@H](Cc1ccccc1)NC(=O)[C@H](CCC(=O)O)NC(=O)[C@H](C)NC(=O)[C@H](CC(C)C)NC(=O)[C@H](CCCNC(=N)N)NC(=O)[C@H](CCC(N)=O)NC(=O)[C@@H](NC(=O)[C@H](C)NC(=O)[C@@H]1CSSC[C@H](NC(=O)[C@H](Cc2c[nH]cn2)NC(=O)CC[C@H](NC(=O)CCCCCCCCCCCCCCCCCCC(=O)O)C(=O)O)C(=O)N[C@@H](CC(N)=O)C(=O)N[C@@H]([C@@H](C)O)C(=O)N[C@@H](C)C(=O)N[C@@H]([C@@H](C)O)C(=O)N1)[C@@H](C)O)C(=O)N[C@@H](CC(C)C)C(=O)N1CCC[C@H]1C(=O)N1CCC[C@H]1C(=O)N[C@H](C(=O)N[C@@H](CC(N)=O)C(=O)N[C@H](C(=O)NCC(=O)N[C@@H](CO)C(=O)N[C@@H](Cc1c[nH]cn1)C(=O)N[C@H](C(=O)N[C@@H](Cc1ccc(O)cc1)C(N)=O)[C@@H](C)O)C(C)C)[C@@H](C)O [Example 76, N-alpha-[(S)-4-Carboxy-4-(19-carboxynonadecanoylamino)butyryl]-[His1,Glu14,His17,His35]-pramlintide] ({C20 diacid-γGlu}-HCNTATCATQRLAEFLHHSSNNFGPILPPTNVGSHTY-NH2; disulfide 2-7 (inferred); C-terminus assumed)",1.04 nM,–,>45 h,>45 h
